Read-outs that look alike come from different tables or passages of the source.
Assay: 2 h pharmacokinetic study with or without elacridar in wild-type and Abcb1a/1b;Abcg2-/- mice
Format: in vivo
Conditions: for concentration at 2 h / Cmax / Tmax / AUC(0-t): mouse, 10 mg/kg oral, 2 h; for Cmax / Tmax / AUC(0-t): male, plasma, po, 10 mg/kg; for AUC(0-t): read-out: AUC0–2h
Protocol: Mice were housed and handled according to institutional guidelines complying with Dutch and EU legislation. All experimental animal protocols were evaluated and approved by the institutional animal care and use committee. Wild-type, Abcb1a/1b^-/-, Abcg2^-/-, Abcb1a/1b; Abcg2^-/-, Slco1a/1b^-/- male mice, and Cyp3a^-/- and Cyp3aXAV female mice, all of a >99% FVB genetic background, were used between 9 and 16 weeks of age. […] All experimental animal protocols (WP9450, 9669, 9760), including power calculations, designed under the nationally approved DEC/CCD project AVD301002016595, were evaluated and approved by the institutional animal care and use committee of The Netherlands Cancer Institute.
Elacridar hydrochloride was dissolved in DMSO (53 mg/mL) in order to obtain 50 mg elacridar base per mL DMSO. The stock solution was further diluted with a mixture of polysorbate 20, 100% ethanol and 5% glucose water to yield a concentration of 5 mg/mL elacridar [DMSO: polysorbate 20: 100% ethanol: 5% glucose water = 10:15:15:60, (v/v/v/v)]. All dosing solutions were prepared freshly on the day of the experiment.
For the 4 h transporter experiments, tail-vein blood samples were collected at 0.125, 0.25, 0.5, 1, and 2 h time points after oral administration, respectively. For the CYP3A 8 h experiments, tail-vein blood sampling was performed at 0.25, 0.5, 1, 2, and 4 h, respectively. While for elacridar inhibition experiments, tail-vein blood samples were collected at 0.125, 0.25, 0.5, and 1 h time points after oral administration, respectively. Blood sample collection was performed using microvettes containing dipotassium EDTA. At the last time point in each experiment (2, 4 or 8 h), mice were anesthetized with 5% isoflurane and blood was collected by cardiac puncture. Blood samples were collected in Eppendorf tubes containing heparin as an anticoagulant. The mice were then sacrificed by cervical dislocation and brain, liver, kidney, lung, small intestine and testis were rapidly removed. Plasma was isolated from the blood by centrifugation at 9000× g for 6 min at 4 °C, and the plasma fraction was collected and stored at −30 °C until analysis. Organs were homogenized with 4% (w/v) bovine serum albumin and stored at −30 °C until analysis.
Pharmacokinetic parameters were calculated by noncompartmental methods using the PK solver software. The area under the plasma concentration–time curve (AUC) was calculated using the trapezoidal rule, without extrapolating to infinity. The peak plasma concentration (Cmax) and the time of maximum plasma concentration (Tmax) were estimated from the original (individual mouse) data. One-way analysis of variance (ANOVA) was used when multiple groups were compared and the Tukey post hoc correction was used to accommodate multiple testing. The two-sided unpaired Student’s t-test was used when treatments or differences between two specific groups were compared using the software GraphPad Prism 8 (GraphPad Software Inc., La Jolla, CA, USA). All the data were log-transformed before statistical tests were applied. Differences were considered statistically significant when p < 0.05. All data are presented as geometric mean ± SD.

[1] = Abcb1a/1b;Abcg2-/- (>99% FVB genetic background), male Abcb1a/1b;Abcg2-/- mice, elacridar 50 mg/kg oral 2 h prior
[2] = Abcb1a/1b;Abcg2-/- (>99% FVB genetic background), male Abcb1a/1b;Abcg2-/- mice, vehicle
[3] = wild-type (>99% FVB genetic background), male wild-type mice, elacridar 50 mg/kg oral 2 h prior
[4] = wild-type (>99% FVB genetic background), male wild-type mice, vehicle

COc1ccc(CN2C3CC2CN(c2ccc(-c4cc(OCC(C)(C)O)cn5ncc(C#N)c45)cn2)C3)cn1 [selpercatinib]
concentration at 2 h (Abcb1a/1b;Abcg2-/- (>99% FVB genetic background), brain, male Abcb1a/1b;Abcg2-/- mice, elacridar 50 mg/kg oral 2 h prior, read-out: Cbrain): 4710 ± 484 ng/g
concentration at 2 h (Abcb1a/1b;Abcg2-/- (>99% FVB genetic background), brain, male Abcb1a/1b;Abcg2-/- mice, vehicle, read-out: Cbrain): 4730 ± 638 ng/g
concentration at 2 h (FVB (Abcb1a/1b;Abcg2-/-), liver, with elacridar 50 mg/kg oral, 2 h before selpercatinib, male Abcb1a/1b;Abcg2-/- mice, elacridar 50 mg/kg oral 2 h prior, read-out: CLiver): 23600 ng/g
concentration at 2 h (FVB (Abcb1a/1b;Abcg2-/-), liver, male Abcb1a/1b;Abcg2-/- mice, vehicle, read-out: CLiver): 21400 ng/g
concentration at 2 h (FVB (wild-type), liver, with elacridar 50 mg/kg oral, 2 h before selpercatinib, male wild-type mice, elacridar 50 mg/kg oral 2 h prior, read-out: CLiver): 20000 ng/g
concentration at 2 h (FVB (wild-type), liver, male wild-type mice, vehicle, read-out: CLiver): 18100 ng/g
concentration at 2 h (FVB, small intestine tissue together with contents, male Abcb1a/1b;Abcg2-/- mice, elacridar 50 mg/kg oral 2 h prior, read-out: CSI + SIC (small intestine tissue together with contents concentration)): 21200 ng/g
concentration at 2 h (FVB, small intestine tissue together with contents, male Abcb1a/1b;Abcg2-/- mice, vehicle, read-out: CSI + SIC (small intestine tissue together with contents concentration)): 18800 ng/g
concentration at 2 h (FVB, small intestine tissue together with contents, male wild-type mice, elacridar 50 mg/kg oral 2 h prior, read-out: CSI + SIC (small intestine tissue together with contents concentration)): 26600 ng/g
concentration at 2 h (FVB, small intestine tissue together with contents, male wild-type mice, vehicle, read-out: CSI + SIC (small intestine tissue together with contents concentration)): 37600 ng/g
concentration at 2 h (FVB, testis, male Abcb1a/1b;Abcg2-/- mice, elacridar 50 mg/kg oral 2 h prior, read-out: Ctestis): 9200 ± 856 ng/g
concentration at 2 h (FVB, testis, male Abcb1a/1b;Abcg2-/- mice, vehicle, read-out: Ctestis): 7020 ± 664 ng/g
concentration at 2 h (FVB, testis, male wild-type mice, elacridar 50 mg/kg oral 2 h prior, read-out: Ctestis): 5710 ± 1740 ng/g
concentration at 2 h (FVB, testis, male wild-type mice, vehicle, read-out: Ctestis): 788 ± 159 ng/g
Cmax [1]: 9620 ± 776 ng/mL
Tmax [1]: 47.4 ± 19.8 min
AUC(0-t) [1]: 17300 ng·h/mL
Cmax [2]: 8860 ± 792 ng/mL
Tmax [2]: 60 min
AUC(0-t) [2]: 15100 ng·h/mL
AUC(0-t) (FVB, wild-type, male wild-type mice, vehicle): 14100 ng·h/mL
Cmax [3]: 7470 ± 1850 ng/mL
Tmax [3]: 30 ± 16.2 min
AUC(0-t) [3]: 12900 ng·h/mL
Cmax [4]: 8740 ± 1560 ng/mL
Tmax [4]: 45 ± 16.2 min
concentration at 2 h (wild-type (>99% FVB genetic background), brain, male wild-type mice, elacridar 50 mg/kg oral 2 h prior, read-out: Cbrain): 2760 ± 851 ng/g
concentration at 2 h (wild-type (>99% FVB genetic background), brain, male wild-type mice, vehicle, read-out: Cbrain): 210 ± 40 ng/g
abnormal external behavior (wild-type mice, oral co-administration of elacridar): without any abnormal external behavior

From publication PMC8617681 (Pharmaceuticals, 2021)
